Like-named read-outs stand apart in the source and are kept apart here.

The target of one series is T1, ERK2 (Homo sapiens, UniProt P28482).
T1 construct: purchased Upstate, Millipore Bioscience Division (KinaseProfiler service)
The series is described as follows: Kinase panel screen (KinaseProfiler), ERK2. The class given is biochemical. As for the experimental part: (§1) Compounds of Formulae I and II were examined for activity against a selected panel of kinases using the KinaseProfiler™ enzyme profiling services (Upstate, Millipore Bioscience Division). Percent kinase activity at 10 μM and 1 μM test compound and 10 μM ATP was determined against 40 wild-type recombinant human kinases according to Upstate's standard protocol: ASK1, BTK, CSK, c-RAF, GCK, GSK3β, IKKα, IKKβ, IRAK1, IRAK4, JNK1α1, JNK2α2, JNK3, ERK1, ERK2, MAPKAP-K2, MAPKAP-K3, MEK1, MKK4, MKK6, MKK7β, Mnk2, MSK1, PAK3, PDK1, PRAK, ROCK1, Rsk2, SAPK2a, SAPK2b, SAPK3, SAPK4, SRPK1, SRPK2, Syk, TAK1, TBK1, PI3-Kβ, PI3-Kγ, PI3-Kδ.

The target in a further series is T2, GCK (Homo sapiens, UniProt Q12851).
T2 construct: purchased Upstate, Millipore Bioscience Division (KinaseProfiler service)
T2 sequence (Q12851 1-820): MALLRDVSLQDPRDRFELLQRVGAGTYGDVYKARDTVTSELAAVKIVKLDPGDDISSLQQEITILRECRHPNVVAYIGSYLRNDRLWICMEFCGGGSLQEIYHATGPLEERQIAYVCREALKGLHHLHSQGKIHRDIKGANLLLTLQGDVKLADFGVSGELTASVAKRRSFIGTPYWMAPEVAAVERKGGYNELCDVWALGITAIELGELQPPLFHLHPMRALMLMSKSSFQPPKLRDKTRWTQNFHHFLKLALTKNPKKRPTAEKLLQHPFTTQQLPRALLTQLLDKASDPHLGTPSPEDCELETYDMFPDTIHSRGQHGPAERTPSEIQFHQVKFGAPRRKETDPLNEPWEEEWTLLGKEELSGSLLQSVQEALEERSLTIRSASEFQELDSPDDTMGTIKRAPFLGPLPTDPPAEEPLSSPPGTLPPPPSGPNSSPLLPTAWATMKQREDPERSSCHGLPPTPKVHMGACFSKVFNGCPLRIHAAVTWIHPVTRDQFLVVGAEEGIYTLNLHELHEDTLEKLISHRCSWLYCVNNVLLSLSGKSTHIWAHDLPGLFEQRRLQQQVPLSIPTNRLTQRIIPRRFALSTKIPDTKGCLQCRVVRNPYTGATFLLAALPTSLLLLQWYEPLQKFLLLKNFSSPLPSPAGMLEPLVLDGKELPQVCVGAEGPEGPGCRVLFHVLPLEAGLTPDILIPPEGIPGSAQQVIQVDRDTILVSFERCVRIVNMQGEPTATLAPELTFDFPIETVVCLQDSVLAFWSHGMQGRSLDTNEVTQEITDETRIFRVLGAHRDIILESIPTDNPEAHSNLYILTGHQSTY
The series is described as follows: Kinase panel screen (KinaseProfiler), GCK. The class given is biochemical. Particulars: for activity at 10 µM: 10 μM test compound, 10 μM ATP, read-out: GCK Percent inhibition, 10 μM. As for the experimental part: as §1

A further series addresses T3, Akt3 human enzyme (Homo sapiens, UniProt Q9Y243).
T3 construct: purchased Upstate Chemicon 14-502
The series is described as follows: Akt3 inhibition assay (IMAP FP).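 Further: kinase reaction run 60 min at room temperature after 30 µM ATP start, phosphorylated substrate captured on IMAP beads and read as fluorescence polarization (mP).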 The class given is biochemical.

The next series deals with T4, IRAK4 (Homo sapiens, UniProt Q9NWZ3).
T4 construct: purchased Upstate, Millipore Bioscience Division (KinaseProfiler service)
T4 sequence (Q9NWZ3 1-460): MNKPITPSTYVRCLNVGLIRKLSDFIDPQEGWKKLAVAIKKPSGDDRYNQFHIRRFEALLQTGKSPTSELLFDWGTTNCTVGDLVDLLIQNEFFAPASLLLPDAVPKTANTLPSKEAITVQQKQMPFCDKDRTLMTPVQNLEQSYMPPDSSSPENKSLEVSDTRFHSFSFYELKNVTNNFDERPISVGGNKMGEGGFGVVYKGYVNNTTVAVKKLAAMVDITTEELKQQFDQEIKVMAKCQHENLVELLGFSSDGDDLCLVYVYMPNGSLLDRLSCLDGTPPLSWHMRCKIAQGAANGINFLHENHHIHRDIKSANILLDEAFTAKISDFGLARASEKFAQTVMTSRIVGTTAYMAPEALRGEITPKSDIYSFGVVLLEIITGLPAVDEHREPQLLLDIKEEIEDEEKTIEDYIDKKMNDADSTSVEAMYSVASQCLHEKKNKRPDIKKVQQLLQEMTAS
The experiment in a line: Kinase panel screen (KinaseProfiler), IRAK4. Particulars: 10 μM ATP; for activity at 1 µM: 1 μM test compound, read-out: IRAK4 Percent inhibition, 1 μM; for activity at 10 µM: 10 μM test compound, read-out: IRAK4 Percent inhibition, 10 μM. Format: biochemical. As for the experimental part: as §1

In a further series the target is T5, ROCK1 (Homo sapiens, UniProt Q13464).
T5 construct: purchased Upstate/Chemicon 14-601
The series is described as follows: Rho kinase inhibition assay (IMAP fluorescence polarization), ROCK1.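 Further: kinase reaction run 60 min at room temperature, then phosphorylated substrate captured on IMAP beads for 30 min, with fluorescence polarization read in mP.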 The class given is biochemical.

For series [1], the system named is ova-sensitized, ova-challenged mice. The series is described as follows: Prevention of airway hyperreactivity (Penh, methacholine) in mouse ovalbumin sensitization model. Format: in vivo. As for the experimental part:
The anti-inflammatory dosing paradigm consists of dosing the animals once a day starting on day 27 and finishing on either day 30 or 31 (1 hr prior to the aerosolized ovalbumin challenges on days 28 to 30) but not on day 32 when hyperreactivity evaluation occurs. […] Exposure to the methacholine doses consisted of a 3 minute period during which a nebulizer was aerosolizing the methacholine and an additional 3 minute period following the cessation of nebulization. […] Enhanced pause (Penh), a unitless index of airway hyperreactivity, is derived from the expiratory side of the respiratory waveform measured via the plethysmograph and is used as an indirect measure of airway resistance and hyperreactivity. […] Following the methacholine dose response, BALF was collected and all animals were anesthetized, bled and euthanized. […] The Penh value at each of the dose levels of methacholine represents the 6-minute average response. Change from baseline (CFB) in Penh was calculated at each methacholine dose and the area under the curve (AUC) for these CFB values was calculated using the trapezoidal rule. This same approach was applied for each mouse across multiple experiments. […] Data from equal experimental conditions across experiments performed on different days were pooled for statistical analysis and data reporting. […] A random intercept for each experiment was assumed to account for possible similarities of the results obtained from a given experiment (i.e., as a “blocking effect”). […] For FIG. 9, linear AUC values from compound treated mice were reported as a percent of linear AUC values from vehicle-treated ovalbumin-sensitized/ovalbumin-challenged (asthmatic) mice.

The next series has as its target T6, IRAK1 (Homo sapiens, UniProt P51617).
T6 construct: purchased Upstate, Millipore Bioscience Division (KinaseProfiler service)
The series is described as follows: Kinase panel screen (KinaseProfiler), IRAK1. The class given is biochemical. The conditions noted are these: 10 μM ATP; for activity at 1 µM: 1 μM test compound, read-out: IRAK1 Percent inhibition, 1 μM; for activity at 10 µM: 10 μM test compound, read-out: IRAK1 Percent inhibition, 10 μM. As for the experimental part: as §1

For the next series, the target named is T7, ROCK2 (Homo sapiens, UniProt O75116).
T7 construct: purchased Upstate/Chemicon 14-451
The series is described as follows: Rho kinase inhibition assay (IMAP fluorescence polarization), ROCK2.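 Further: kinase reaction started with 10 µM ATP and run 60 min at room temperature, then phosphorylated substrate captured on IMAP beads for 30 min and fluorescence polarization read in mP.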 The class given is biochemical. Background: Fluorescence polarisation rises when a labelled molecule tumbles more slowly, as on binding a larger partner.

A further series deals with T8, p70S6K human enzyme (Homo sapiens, UniProt P23443, T412E).
T8 construct: purchased Upstate Chemicon 14-486
The experiment in a line: p70S6K inhibition assay (IMAP FP).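 Further: kinase reaction run at room temperature, phosphorylated substrate captured on IMAP beads and read as fluorescence polarization in mP, IC50 then converted to Ki.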 Format: biochemical.

In the next series the target is T9, Mnk2 (Homo sapiens, UniProt Q9HBH9).
T9 construct: purchased Upstate, Millipore Bioscience Division (KinaseProfiler service)
The experiment in a line: Kinase panel screen (KinaseProfiler), Mnk2. The class given is biochemical. Particulars: 10 μM ATP; for activity at 1 µM: 1 μM test compound, read-out: Mnk2 Percent inhibition, 1 μM; for activity at 10 µM: 10 μM test compound, read-out: Mnk2 Percent inhibition, 10 μM. As for the experimental part:
as §1

Series [2] is described as follows: Compound plasma concentrations in unsensitized mice at 15 min post administration. The conditions noted are these: mouse, 15 μmol/kg; mean compound plasma concentration in mice at 15 minutes post oral administration; read-out: Mouse Oral PK. The class given is in vivo.
Method: Additionally, compound concentrations were determined in the plasma and lungs of male, ovalbumin-sensitized, Balb/c mice from a murine model of asthma. Test compounds were formulated in water or 1% polysorbate 80 and dosed at 15 μmol/kg for intraperitoneal (IP) or oral (PO) administration or formulated for intratracheal (IT) administration and dosed at 5 μmol/kg, which directly targets the lungs. Following completion of the in vivo study, mice were euthanized and blood and plasma collected approximately 2.5-3 hours post administration of test compound for bronchodialator (BD) studies and 24 hours post administration for anti-inflamatory (AI) studies. Lungs were homogenized in Matrix A lysing tubes using a FastPrep 24 tissue and cell homogenizer (MP Biomedicals, Solon, Ohio). Both plasma samples and lung extracts were assayed for compound concentrations using an on-line, solid phase extraction LC/MS/MS system.
Series [3] concerns A-10 rat thoracic aorta cells. The series is described as follows: PDGF-stimulated smooth muscle cell proliferation assay (BrdU incorporation).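 Further: cells kept in serum-free medium, BrdU allowed to incorporate for 24 h, then incorporated label detected fluorometrically with an anti-BrdU antibody.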 The class given is cell-based. Particulars: A-10 cells, 10 ng/mL PDGF, BrdU incorporation, percent of total challenge-stimulated proliferation.
Method: Effects on cell proliferation were measured using a bromodeoxyuridine (BrdU) incorporation assay. […] Serum free media containing 01% BSA was added to the cells. 24 hours later the media was removed and replaced with warmed serum free media. […] Proliferation was then monitored using the BrdU Cell Proliferation Assay, HTS (Calbiochem cat. #t HTS01). BrdU was allowed to incorporate into cells for 24 hours prior to the addition of fixative/denaturing solution and the fluorometric detection of incorporated BrdU using a BrdU antibody as per manufacturer's directions. Data are reported as a percent of the PDGF-stimulated BrdU incorporation.
The target of the next series is T10, ERK1 (Homo sapiens, UniProt P27361).
T10 construct: purchased Upstate, Millipore Bioscience Division (KinaseProfiler service)
The experiment in a line: Kinase panel screen (KinaseProfiler), ERK1. Format: biochemical. Particulars: 10 μM ATP. As for the experimental part:
as §1

The mark [4] stands for this setting: 30 μM ATP, Ki=IC50/(1+([ATP Challenge]/EC50 ATP)), read-out: Akt3 Ki, Avg.
The mark [5] stands for this setting: 10 μM ATP, read-out: ROCK2 Ki, Avg.
The mark [6] stands for this setting: 30 μM ATP, Ki=IC50/(1+([ATP Challenge]/EC50 ATP)), read-out: p70S6K Ki, Avg.
The mark [7] stands for this setting: average Ki, read-out: p70S6K Ki.

T3 sequence (Q9Y243 whole entry): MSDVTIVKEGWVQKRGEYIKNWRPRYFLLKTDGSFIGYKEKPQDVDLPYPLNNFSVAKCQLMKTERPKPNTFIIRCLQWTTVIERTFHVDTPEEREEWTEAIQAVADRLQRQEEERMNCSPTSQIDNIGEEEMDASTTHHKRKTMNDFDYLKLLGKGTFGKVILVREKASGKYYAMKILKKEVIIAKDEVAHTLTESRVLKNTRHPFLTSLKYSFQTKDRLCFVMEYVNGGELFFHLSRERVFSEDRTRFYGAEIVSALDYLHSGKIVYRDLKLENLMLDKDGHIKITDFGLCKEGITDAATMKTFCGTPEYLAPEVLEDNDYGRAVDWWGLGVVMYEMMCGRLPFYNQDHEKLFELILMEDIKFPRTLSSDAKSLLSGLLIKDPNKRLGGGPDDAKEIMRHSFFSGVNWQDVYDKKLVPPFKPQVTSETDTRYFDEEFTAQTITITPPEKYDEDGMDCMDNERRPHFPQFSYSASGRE
T1 sequence (P28482 whole entry): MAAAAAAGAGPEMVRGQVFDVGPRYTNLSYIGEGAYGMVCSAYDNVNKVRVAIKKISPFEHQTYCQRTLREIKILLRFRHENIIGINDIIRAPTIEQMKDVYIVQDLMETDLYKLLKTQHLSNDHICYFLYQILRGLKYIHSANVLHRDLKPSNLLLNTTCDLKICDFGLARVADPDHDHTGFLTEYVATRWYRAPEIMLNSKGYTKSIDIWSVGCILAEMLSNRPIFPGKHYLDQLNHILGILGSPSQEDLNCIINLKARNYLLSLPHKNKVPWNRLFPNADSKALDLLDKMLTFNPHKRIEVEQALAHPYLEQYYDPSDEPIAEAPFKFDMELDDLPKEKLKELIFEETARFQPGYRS
T8 sequence (P23443 1-421 T412E limits assumed): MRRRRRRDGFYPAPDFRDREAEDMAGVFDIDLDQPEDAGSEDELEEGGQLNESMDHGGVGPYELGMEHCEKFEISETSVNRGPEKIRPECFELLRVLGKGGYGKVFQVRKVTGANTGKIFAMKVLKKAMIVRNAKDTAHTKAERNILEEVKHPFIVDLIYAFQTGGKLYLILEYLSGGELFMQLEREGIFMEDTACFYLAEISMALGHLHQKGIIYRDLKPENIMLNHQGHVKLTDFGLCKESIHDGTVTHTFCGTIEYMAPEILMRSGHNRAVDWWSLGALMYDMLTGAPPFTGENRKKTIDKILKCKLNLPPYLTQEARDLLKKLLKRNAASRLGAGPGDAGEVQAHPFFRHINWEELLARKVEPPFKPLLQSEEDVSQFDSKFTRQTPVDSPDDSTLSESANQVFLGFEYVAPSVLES
T7 sequence (O75116 11-552 limits assumed): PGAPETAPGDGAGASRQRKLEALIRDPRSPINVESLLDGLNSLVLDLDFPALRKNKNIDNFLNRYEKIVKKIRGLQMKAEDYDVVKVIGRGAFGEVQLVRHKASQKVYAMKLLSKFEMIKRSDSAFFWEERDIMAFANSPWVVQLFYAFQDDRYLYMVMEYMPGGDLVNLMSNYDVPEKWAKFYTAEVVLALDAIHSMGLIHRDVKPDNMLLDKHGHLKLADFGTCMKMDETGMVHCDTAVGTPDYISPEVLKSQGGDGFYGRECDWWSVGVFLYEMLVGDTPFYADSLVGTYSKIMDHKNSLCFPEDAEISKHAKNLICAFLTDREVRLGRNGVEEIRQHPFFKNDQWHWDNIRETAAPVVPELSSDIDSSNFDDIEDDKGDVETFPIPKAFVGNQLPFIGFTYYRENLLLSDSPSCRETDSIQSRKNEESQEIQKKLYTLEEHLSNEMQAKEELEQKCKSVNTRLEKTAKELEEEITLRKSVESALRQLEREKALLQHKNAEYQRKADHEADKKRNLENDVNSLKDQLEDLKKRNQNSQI
T9 sequence (Q9HBH9 whole entry): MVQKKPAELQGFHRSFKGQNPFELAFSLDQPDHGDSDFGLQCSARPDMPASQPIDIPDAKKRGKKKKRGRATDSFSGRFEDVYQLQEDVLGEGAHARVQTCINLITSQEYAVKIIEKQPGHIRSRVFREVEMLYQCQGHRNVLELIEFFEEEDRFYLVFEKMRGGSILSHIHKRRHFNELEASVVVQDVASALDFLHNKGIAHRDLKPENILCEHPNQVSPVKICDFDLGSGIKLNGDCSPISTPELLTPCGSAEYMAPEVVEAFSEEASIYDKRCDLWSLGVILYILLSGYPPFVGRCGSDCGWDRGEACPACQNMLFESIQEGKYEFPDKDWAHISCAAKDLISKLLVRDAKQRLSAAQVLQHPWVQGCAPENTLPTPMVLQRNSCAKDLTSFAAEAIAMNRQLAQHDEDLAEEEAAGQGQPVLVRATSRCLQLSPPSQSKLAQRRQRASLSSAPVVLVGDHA
T6 sequence (P51617 whole entry): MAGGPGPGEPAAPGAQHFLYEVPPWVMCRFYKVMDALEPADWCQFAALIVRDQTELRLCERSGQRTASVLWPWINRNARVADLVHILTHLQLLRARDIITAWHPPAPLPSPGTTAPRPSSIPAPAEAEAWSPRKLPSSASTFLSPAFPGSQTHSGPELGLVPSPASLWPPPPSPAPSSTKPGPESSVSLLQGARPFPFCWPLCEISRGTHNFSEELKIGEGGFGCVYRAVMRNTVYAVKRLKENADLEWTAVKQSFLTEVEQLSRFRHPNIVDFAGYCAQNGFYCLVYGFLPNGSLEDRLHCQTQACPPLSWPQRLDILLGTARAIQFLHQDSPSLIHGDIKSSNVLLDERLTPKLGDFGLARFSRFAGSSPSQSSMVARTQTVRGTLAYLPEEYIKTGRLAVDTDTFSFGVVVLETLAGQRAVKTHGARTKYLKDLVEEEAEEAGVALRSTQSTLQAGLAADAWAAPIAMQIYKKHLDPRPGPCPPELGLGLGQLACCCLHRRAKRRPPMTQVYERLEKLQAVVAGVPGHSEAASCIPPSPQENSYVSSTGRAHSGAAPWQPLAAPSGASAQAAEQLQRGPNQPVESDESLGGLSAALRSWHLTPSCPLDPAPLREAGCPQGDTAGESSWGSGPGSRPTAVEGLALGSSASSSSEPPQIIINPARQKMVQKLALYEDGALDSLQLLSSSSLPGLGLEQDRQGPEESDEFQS
T5 sequence (Q13464 17-535 limits assumed): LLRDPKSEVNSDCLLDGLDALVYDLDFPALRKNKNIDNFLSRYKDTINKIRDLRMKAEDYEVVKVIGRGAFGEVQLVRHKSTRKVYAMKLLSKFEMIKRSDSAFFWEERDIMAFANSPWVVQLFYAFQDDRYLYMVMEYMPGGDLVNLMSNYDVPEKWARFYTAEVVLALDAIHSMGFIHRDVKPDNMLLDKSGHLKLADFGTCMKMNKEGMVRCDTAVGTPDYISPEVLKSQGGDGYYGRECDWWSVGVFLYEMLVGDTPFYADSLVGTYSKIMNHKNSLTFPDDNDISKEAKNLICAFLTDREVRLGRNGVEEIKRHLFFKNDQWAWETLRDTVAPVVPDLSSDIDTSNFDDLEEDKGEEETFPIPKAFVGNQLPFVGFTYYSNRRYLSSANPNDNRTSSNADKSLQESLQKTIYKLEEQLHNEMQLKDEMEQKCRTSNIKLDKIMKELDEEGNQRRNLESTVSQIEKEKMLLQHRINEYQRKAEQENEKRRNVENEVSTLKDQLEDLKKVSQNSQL
T10 sequence (P27361 whole entry): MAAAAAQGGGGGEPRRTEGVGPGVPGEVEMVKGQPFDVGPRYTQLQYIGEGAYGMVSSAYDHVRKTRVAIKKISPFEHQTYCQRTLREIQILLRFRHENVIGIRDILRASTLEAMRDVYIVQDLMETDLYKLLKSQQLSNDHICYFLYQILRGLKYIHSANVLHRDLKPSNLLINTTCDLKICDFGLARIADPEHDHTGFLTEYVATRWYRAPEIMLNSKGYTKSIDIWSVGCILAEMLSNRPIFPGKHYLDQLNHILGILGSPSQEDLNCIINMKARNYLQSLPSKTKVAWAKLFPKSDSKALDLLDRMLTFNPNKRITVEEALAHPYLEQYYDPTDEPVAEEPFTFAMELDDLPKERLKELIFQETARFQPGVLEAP
Method for ROCK1: (§2) Following the pre-incubation, 10 μM ATP was added to initiate the reaction. After 60 minutes at room temperature, Molecular Devices IMAP™ binding solution was added to bind phosphorylated substrate. After 30 minutes of incubation in the presence of the IMAP™ beads, the fluorescence polarization was read and the ratio was reported as mP. IC50 values for compounds and EC50 values for ATP were calculated using the Prism software from Graphpad.
Method for ROCK2: as §2

Take `Cc1ccc(CN2CCC[C@@H](Nc3ccc4[nH]ncc4c3)C2)cc1OCCO` [Compound 1.161, (R)-2-(5-((3-(1H-indazol-5-ylamino)piperidin-1-yl)methyl)-2-methylphenoxy)ethanol]: the “ERK2 Percent inhibition, 1 μM” value at ERK2 turned out to be 104%. In addition, the “ERK2 Percent inhibition, 10 μM” value on ERK2 is reported as 92%. The “GCK Percent inhibition, 1 μM” value on GCK was 96%. In addition, the activity at 10 µM at GCK is 91%; on IRAK4, 109%; on IRAK1, 99%; at Mnk2, 106%. The Ki (commonly a measure of affinity in units of concentration, obtained from inhibition or displacement) was determined as 63.5 nM at Akt3 human enzyme (setting [4]); 63.5 nM at Akt3 human enzyme (average Ki, read-out: Akt3 Ki); 9.9 nM at ROCK1 (Avg, 10 μM ATP); 9.9 nM on ROCK1 (average Ki); 2.5 nM at ROCK2 (setting [5]); 2.5 nM on ROCK2 (average Ki, read-out: ROCK2 Ki). Further, the Ki at p70S6K human enzyme (setting [6]) and at p70S6K human enzyme (setting [7]) was 129 nM throughout. Besides, the activity at 1 µM was determined as 96% on IRAK4, 106% at IRAK1 and 108% on Mnk2. Moreover, in series [1] (0.5 μmol/kg/intratracheal, days 27 to 31), the “log10AUC (Penh)” value worked out at 2.0405. Moreover, the airway hyperreactivity result in series [1] (intratracheal once a day during days 27 to 31) is listed as “prevention of airway hyperreactivity”.
Regarding `NC(=O)Cn1ccc2cc(CN3CCC[C@@H](Nc4ccc5[nH]ncc5c4)C3)ccc21` [Compound 1.162, (R)-2-(5-((3-(1H-indazol-5-ylamino)piperidin-1-yl)methyl)-1H-indol-1-yl)acetamide], the “ERK2 Percent inhibition, 1 μM” value on ERK2 turned out to be 89%. For the same compound, at ERK2, the “ERK2 Percent inhibition, 10 μM” value is 60%. In addition, the “GCK Percent inhibition, 1 μM” value at GCK worked out at 93%. Besides, the activity at 10 µM on GCK was determined as 75%; on IRAK4, 88%; at IRAK1, 97%; at Mnk2, 65%; at ERK1 (10 μM test compound, read-out: ERK1 Percent inhibition, 10 μM), 50%. The inhibitory constant (Ki) at Akt3 human enzyme (setting [4]) was found to be 92 nM; at Akt3 human enzyme (average Ki, read-out: Akt3 Ki) it was 92 nM; on ROCK1 (Avg, 10 μM ATP), 15.2 nM; on ROCK1 (average Ki), 15.2 nM; on ROCK2 (setting [5]), 2.8 nM; on ROCK2 (average Ki, read-out: ROCK2 Ki), 2.8 nM. Also, the Ki at p70S6K human enzyme (setting [6]) and at p70S6K human enzyme (setting [7]) was 387 nM in each case. Further, the activity at 1 µM on IRAK4 was determined as 105%; on IRAK1, 100%; on Mnk2, 111%; at ERK1 (1 μM test compound, read-out: ERK1 Percent inhibition, 1 μM), 84%. The concentration at 15 min in series [2] was determined as 76 nM. Further, the “Percent of PDGF Induced Proliferation at 1 μM Avg” value in [3] (1 μM test compound) was determined as 55.6%. In addition, in [3] (10 μM test compound), the “Percent of PDGF Induced Proliferation at 10 μM Avg” value was 42.5%.

Values taken from patent publication US20090325959A1 (priority 2008, published 2009).
